# Source: ChEMBL document CHEMBL1152592, “Design, synthesis and biological evaluations of novel 7-[3-(1-aminocycloalkyl)pyrrolidin-1-yl]-6-desfluoro-8-methoxyquinolones with potent antibacterial activity against multi-drug resistant Gram-positive bacteria” (Bioorg Med Chem, 2009)
# Experiments:
# Enterococcus faecalis [1] = assay: Antibacterial activity against vancomycin-resistant Enterococcus faecalis after 18 hrs by twofold microbroth dilution method; assay type: functional
# Staphylococcus aureus [2] = assay: Antibacterial activity against ciprofloxacin, methicillin-resistant Staphylococcus aureus after 18 hrs by twofold microbroth dilution method; assay type: functional
# Staphylococcus aureus [3] = assay: Antibacterial activity against levofloxacin, methicillin-resistant Staphylococcus aureus after 18 hrs by twofold microbroth dilution method; assay type: functional
# Enterococcus faecium = assay: Antibacterial activity against vancomycin-resistant Enterococcus faecium after 18 hrs by twofold microbroth dilution method; assay type: functional
# Streptococcus pneumoniae [4] = assay: Antibacterial activity against penicillin-intermediate resistant Streptococcus pneumoniae after 18 hrs by twofold microbroth dilution method; assay type: functional
# Pseudomonas aeruginosa = assay: Antibacterial activity against Pseudomonas aeruginosa PAO1 after 18 hrs by twofold microbroth dilution method; assay type: functional; settings: PAO1, 18 h
# Klebsiella pneumoniae = assay: Antibacterial activity against Klebsiella pneumoniae type 2 after 18 hrs by twofold microbroth dilution method; assay type: functional; settings: type 2, 18 h
# Streptococcus pyogenes = assay: Antibacterial activity against Streptococcus pyogenes G-36 after 18 hrs by twofold microbroth dilution method; assay type: functional; settings: G-36, 18 h
# Enterococcus faecalis [5] = assay: Antibacterial activity against Enterococcus faecalis ATCC 19433 after 18 hrs by twofold microbroth dilution method; assay type: functional; settings: ATCC19433, 18 h
# Escherichia coli = assay: Antibacterial activity against Escherichia coli NIHJ after 18 hrs by twofold microbroth dilution method; assay type: functional
# Streptococcus mitis = assay: Antibacterial activity against Streptococcus mitis IID685 after 18 hrs by twofold microbroth dilution method; assay type: functional; settings: IID685, 18 h
# Streptococcus pneumoniae [6] = assay: Antibacterial activity against Streptococcus pneumoniae J-24 after 18 hrs by twofold microbroth dilution method; assay type: functional; settings: J-24, 18 h
# Staphylococcus aureus [7] = assay: Antibacterial activity against Staphylococcus aureus FDA 209-P after 18 hrs by twofold microbroth dilution method; assay type: functional
# [8] = system: Staphylococcus epidermidis; assay: Antibacterial activity against Staphylococcus epidermidis 56500 after 18 hrs by twofold microbroth dilution method; assay type: functional; settings: Staphylococcus epidermidis, 56500, 18 h
# [9] = Inhibition of Staphylococcus aureus wild type DNA topoisomerase 4
# DNA gyrase subunit A = DNA gyrase subunit A (Staphylococcus aureus, UniProt P20831, S84L); assay: Inhibition of Staphylococcus aureus DNA gyrase Ser84Leu mutant
# [10] = Inhibition of Staphylococcus aureus DNA topoisomerase 4 Ser80Phe mutant
# Staphylococcus aureus [11] = assay: Selectivity ratio of IC50 for Staphylococcus aureus DNA topoisomerase 4 Ser80Phe mutant to IC50 for Staphylococcus aureus wild type DNA topoisomerase 4
# Staphylococcus aureus [12] = assay: Selectivity ratio of IC50 for Staphylococcus aureus DNA gyrase Ser84Leu mutant to IC50 for Staphylococcus aureus wild type DNA gyrase
# DNA gyrase = DNA gyrase (Staphylococcus aureus, UniProt P0A0K8+P20831); assay: Inhibition of Staphylococcus aureus wild type DNA gyrase; assay type: protein-complex assay
# [13] = Aqueous […] of the compound; assay type: physicochemical; settings: aqueous (not further specified)
# Mus musculus [14] = assay: Toxicity in Slc:ddY mouse assessed as micronucleated reticulocyte in blood at 100 mg/kg, iv after 48 hrs of treatment by fluorescence microscopy; assay type: organism-based; design: dose 100 mg/kg, route intravenous; settings: in vivo
# Mus musculus [15] = assay: Toxicity in Slc:ddY mouse at 50 mg/kg, iv; assay type: organism-based; design: dose 50 mg/kg, route intravenous; settings: in vivo
# Mus musculus [16] = assay: Toxicity in Slc:ddY mouse at 150 mg/kg, iv; assay type: organism-based; design: dose 150 mg/kg, route intravenous; settings: in vivo
# Mus musculus [17] = assay: Toxicity in Slc:ddY mouse at 100 mg/kg, iv; assay type: organism-based; design: dose 100 mg/kg, route intravenous; settings: in vivo
SMILES,MIC50 (Enterococcus faecalis [1]) [µg/mL],MIC90 (Enterococcus faecalis [1]) [µg/mL],MIC50 (Staphylococcus aureus [2]) [µg/mL],MIC90 (Staphylococcus aureus [2]) [µg/mL],MIC50 (Staphylococcus aureus [3]) [µg/mL],MIC80 (Staphylococcus aureus [3]) [µg/mL],MIC90 (Staphylococcus aureus [3]) [µg/mL],MIC50 (Enterococcus faecium) [µg/mL],MIC90 (Enterococcus faecium) [µg/mL],MIC50 (Streptococcus pneumoniae [4]) [µg/mL],MIC (Pseudomonas aeruginosa) [µg/mL],MIC (Klebsiella pneumoniae) [µg/mL],MIC (Streptococcus pyogenes) [µg/mL],MIC (Enterococcus faecalis [5]) [µg/mL],MIC (Escherichia coli) [ng/mL],MIC (Streptococcus mitis) [µg/mL],MIC (Streptococcus pneumoniae [6]) [µg/mL],MIC (Staphylococcus aureus [7]) [µg/mL],MIC [8] [µg/mL],solubility [13] [µg/mL],further results
CN[C@H](CC(C)C)C(=O)N[C@H]1C(=O)N[C@@H](CC(N)=O)C(=O)N[C@H]2C(=O)N[C@H]3C(=O)N[C@H](C(=O)N[C@H](C(=O)O)c4cc(O)cc(O)c4-c4cc3ccc4O)[C@H](O)c3ccc(c(Cl)c3)Oc3cc2cc(c3O[C@@H]2O[C@H](CO)[C@@H](O)[C@H](O)[C@H]2O[C@H]2C[C@](C)(N)[C@H](O)[C@H](C)O2)Oc2ccc(cc2Cl)[C@H]1O [VANCOMYCIN],> 128,> 128,1,2,1,1,1,> 128,> 128,0.5,,,,,,,,,,,MIC90 (Streptococcus pneumoniae [4]): 0.5 µg/mL
N[C@@H]1[C@H]2CN(c3nc4c(cc3F)c(=O)c(C(=O)O)cn4-c3ccc(F)cc3F)C[C@@H]12 [TROVAFLOXACIN],,,,,,,,,,,0.2,0.025,0.2,0.2,≤ 3,0.1,0.05,0.013,0.05,,
CC(=O)NC[C@H]1CN(c2ccc(N3CCOCC3)c(F)c2)C(=O)O1 [LINEZOLID],2,2,1,1,,,,2,2,1,,,,,,,,,,,MIC90 (Streptococcus pneumoniae [4]): 2 µg/mL
C[C@H]1COc2c(N3CCN(C)CC3)c(F)cc3c(=O)c(C(=O)O)cn1c23.C[C@H]1COc2c(N3CCN(C)CC3)c(F)cc3c(=O)c(C(=O)O)cn1c23.O [LEVOFLOXACIN],,,,,16,> 64,> 64,,,,,,,,,,,,,,IC50 [9]: 2.67 µg/mL; IC50 (DNA gyrase subunit A): > 1380 µM; IC50 [10]: 57.1 µg/mL
NCC[C@H](O)C(=O)N[C@@H]1C[C@H](N)[C@@H](O[C@H]2O[C@H](CN)CC[C@H]2N)[C@H](O)[C@H]1O[C@H]1O[C@H](CO)[C@@H](O)[C@H](N)[C@H]1O [ARBEKACIN],2,2,8,32,,,,16,32,32,,,,,,,,,,,MIC90 (Streptococcus pneumoniae [4]): 64 µg/mL
COc1c(N2CCNC(C)C2)c(F)cc2c(=O)c(C(=O)O)cn(C3CC3)c12 (configuration not stated) [GATIFLOXACIN],16,32,4,64,,,,4,32,0.5,0.78,0.05,0.39,0.39,6,0.2,0.2,0.05,0.2,,Ratio IC50 (Staphylococcus aureus [11]): 12.2; IC50 [9]: 1.85 µg/mL; IC50 (DNA gyrase subunit A): 765 µM; IC50 [10]: 22.5 µg/mL; MIC90 (Streptococcus pneumoniae [4]): 0.5 µg/mL; Ratio IC50 (Staphylococcus aureus [12]): 89.1; IC50 (DNA gyrase): 8.58 µM
COc1c(N2C[C@@H]3CCCN[C@@H]3C2)c(F)cc2c(=O)c(C(=O)O)cn(C3CC3)c12 [MOXIFLOXACIN],16,32,2,32,4,32,32,4,32,,0.78,0.05,0.2,0.2,6,0.1,0.025,0.013,0.1,,IC50 [9]: 1.36 µg/mL; IC50 [10]: 24.2 µg/mL
COc1c(N2CC[C@@H](C3(N)CCC3)C2)ccc2c(=O)c(C(=O)O)cn([C@@H]3C[C@@H]3F)c12,,,,,,,,,,,0.39,0.05,0.006,0.05,12,0.003,0.006,≤ 0.003,0.012,604,Activity (Mus musculus [14]): Toxic; Activity (Mus musculus [15]): Non-toxic; Activity (Mus musculus [16]): Toxic; Activity (Mus musculus [17]): Non-toxic
CNC1([C@@H]2CCN(c3ccc4c(=O)c(C(=O)O)cn([C@@H]5C[C@@H]5F)c4c3OC)C2)CC1,,,,,,,,,,,0.39,0.05,0.012,0.05,6,0.003,0.006,≤ 0.003,0.012,161,Activity (Mus musculus [14]): Non-toxic; Activity (Mus musculus [17]): Non-toxic
CNC1([C@@H]2CCN(c3c(F)cc4c(=O)c(C(=O)O)cn([C@@H]5C[C@@H]5F)c4c3OC)C2)CC1,,,,,,,,,,,0.2,0.012,0.003,0.025,≤ 3,0.003,≤ 0.003,≤ 0.003,0.006,173,Activity (Mus musculus [15]): Toxic; Activity (Mus musculus [16]): Toxic; Activity (Mus musculus [17]): Toxic
COc1c(N2CC[C@@H]([C@H](C)N)C2)c(F)cc2c(=O)c(C(=O)O)cn(C3CC3)c12,,,,,,,,,,,,0.05,0.012,0.05,12,0.025,,,0.012,89,Activity (Mus musculus [15]): Toxic; Activity (Mus musculus [17]): Toxic
C[C@H]1NCc2cc(-c3ccc4c(=O)c(C(=O)O)cn(C5CC5)c4c3OC(F)F)ccc21 [GARENOXACIN],4,8,1,32,2,64,64,8,32,0.12,0.78,0.05,0.1,0.2,12,0.05,0.025,0.025,0.05,,Ratio IC50 (Staphylococcus aureus [11]): 18.2; IC50 [9]: 1.14 µg/mL; IC50 (DNA gyrase subunit A): > 1200 µM; IC50 [10]: 20.7 µg/mL; MIC90 (Streptococcus pneumoniae [4]): 0.12 µg/mL; Ratio IC50 (Staphylococcus aureus [12]): > 143; IC50 (DNA gyrase): 8.42 µM
COc1c(N2CC[C@@H](C3(N)CCC3)C2)c(F)cc2c(=O)c(C(=O)O)cn([C@@H]3C[C@@H]3F)c12,,,,,,,,,,,0.39,0.025,0.003,0.025,≤ 3,0.003,≤ 0.003,≤ 0.003,≤ 0.003,180,Activity (Mus musculus [16]): Toxic
COc1c(N2CC[C@@H](C3(N)CC3)C2)c(F)cc2c(=O)c(C(=O)O)cn([C@@H]3C[C@@H]3F)c12,,,,,,,,,,,0.2,0.012,0.003,0.012,≤ 3,0.003,≤ 0.003,≤ 0.003,≤ 0.003,221,Activity (Mus musculus [15]): Toxic; Activity (Mus musculus [16]): Toxic; Activity (Mus musculus [17]): Toxic
O=C(O)c1cn(C2CC2)c2cc(N3CCNCC3)c(F)cc2c1=O [CIPROFLOXACIN],,,,,> 64,> 64,> 64,,,,0.05,0.025,1.56,0.78,≤ 3,0.78,0.39,0.05,0.2,,IC50 [9]: 1.24 µg/mL; IC50 [10]: 22.4 µg/mL
